Like-named read-outs stand apart in the source and are kept apart here.
What was measured:
HDAC1 = target: T1, HDAC1 (Homo sapiens, UniProt Q13547); assay: In vitro HDAC1 enzymatic activity inhibition (Lys-Ac-AMC substrate); assay type: biochemical
T1 construct: purchased BPS Bioscience
Method: Determining the inhibition capability to HDAC activity through the substrate method of fluorophore 4-amino-7-coumarin coupled Ac-peptide (Lys-Ac-AMC). HDAC1 protein is purchased from BPS Bioscience Company; the reaction buffer system is a modified tris(hydroxymethyl)aminomethane (TRIS) buffer (pH7.0). All small molecule compounds are prepared and dissolved by 100% DMSO (dimethyl sulfoxide). HDAC is prepared into the buffer as per certain concentration to be served as the enzyme solution; trypsin and the fluorophore 4-amino-7-coumarin coupled Ac-peptide substrate are prepared into the buffer as per certain concentration to be served as the substrate solution. Adding the compound into the reaction wells of the 384 well plate at the designed concentration, then adding 15 μL HDAC solution into the reaction wells (adding 15 μL blank buffer into the control well 0) for incubation under ambient temperature for 15 min; then adding 10 μL substrate solution to start reaction; during the reaction, the final concentration of HDAC1 protein is 6 nM, trypsin 0.05 μM and Ac-peptide 8 μM.
(§1) Calculating the value of IC50 as per the formula: Y=background data+(top data−background data)/(1+10^((Log IC50−X)*rate of curve))
Where, Y refers to the inhibition ratio (%) and X refers to the compound concentration. […]
Analyzing the result data with the software GraphPad Prism and calculating the value of IC50 as per the formula: Y=background data+(top data−background data)/(1+10^((Log IC50−X)*rate of curve)). Where, Y refers to the inhibition ratio (%) and X refers to the compound concentration.

PI3Kα = target: T2, PI3Kα (Homo sapiens, UniProt P42336); assay: PI3Kα activity inhibition (Kinase-Glo); assay type: biochemical; conditions: Table 1, graded; read-out: PI3Kα IC50
T2 construct: purchased Invitrogen PV4788
Method: Detecting the inhibition capability of the compound to PI3Kα and PI3Kδ activities with Kinase-Glo (purchased from Promege Company; Catalog No.: V3771). […] The reaction system also comprises substrates as PIP2 (4, 5-diphosphoinositide, purchased from Life Technologies Company) and ATP (triphosadenine, purchased from Sigma Company). The reaction buffer system comprises 50 mM HEPES (4-hydroxyethylpiperazine ethane sulfonic acid), 3 mM MgCl2, 1 mM EGTA (ethylene glycol bis(2-amino ethylether)quadrol), 100 mM NaCl, 0.03% CHAPS (3-[3-(cholamidopropyl)dimethylamino]-1-propanesulfonic acid), 2 mM DTT (dithiothreitol). The pH value of the reaction buffer is 7.5. […] Mixing the system evenly for incubation under ambient temperature (for 1 h in PI3Kα test and for 2 h in PI3Kδ test). After incubation, adding 10 μL Kinase-Glo which has been preheated to ambient temperature into each reaction well to terminate the reaction; shaking it in dark place for 15 min after it is mixed evenly, then measuring the fluorescence intensity with a microplate reader and analyzing the result data with the software GraphPad Prism.
as §1
Where, Y refers to the inhibition ratio (%) and X refers to the compound concentration.

[1] = test system: MV4-11 cells (acute myeloid leukemia); assay: Cell proliferation inhibition, MV4-11 (cck-8); assay type: cell-based; conditions: Homo sapiens
Method: (§2) The tumor cell lines are purchased from American Type Culture Collection (ATCC) and cultivated to the status of logarithmic growth as per the cultural method recommended by ATCC. The cells in logarithmic phase are spread on a 96 well plate as per 2000-3000/well; as for anchorage-dependent cells, the compound should be added in the test wells at certain concentration for incubation for 96 h after cell adherence. Determining cell proliferation activities with method MTT for tumor cells representing solid tumor model and with method cck-8 for tumor cells representing hematologic tumor model, and analyzing the result data with the software GraphPad Prism.
(§3) Calculating the value of IC50 as per the formula: Y=background data+(top data−background data)/(1+10^((Log IC50−X)*rate of curve)). Where, Y refers to the inhibition ratio (%) and X refers to the compound concentration.

[2] = test system: hct116 cells (colon cancer); assay: Cell proliferation inhibition, hct116 (MTT); assay type: cell-based; conditions: Homo sapiens, HCT-116
Method: as §2, §3

[3] = test system: A2780s cells (ovarian cancer); assay: Cell proliferation inhibition, A2780s (MTT); assay type: cell-based; conditions: Homo sapiens
Method: as §2, §3

[4] = Table 1, graded, read-out: HDAC1 IC50
[5] = read-out: inhibition value IC50 to the activity of HDAC1
[6] = 96 h incubation, read-out: Proliferation IC50, Acute myeloid leukemia MV4-11
[7] = 96 h incubation, read-out: Proliferation IC50, Colon cancer hct116
[8] = 96 h incubation, read-out: Proliferation IC50, Ovarian cancer A2780s
[9] = read-out: IC50 to proliferation of MV4-11 cells
[10] = read-out: IC50 to proliferation of hct116 cells
[11] = read-out: IC50 to proliferation of A2780s cells

T2 sequence (P42336 whole entry, species assumed): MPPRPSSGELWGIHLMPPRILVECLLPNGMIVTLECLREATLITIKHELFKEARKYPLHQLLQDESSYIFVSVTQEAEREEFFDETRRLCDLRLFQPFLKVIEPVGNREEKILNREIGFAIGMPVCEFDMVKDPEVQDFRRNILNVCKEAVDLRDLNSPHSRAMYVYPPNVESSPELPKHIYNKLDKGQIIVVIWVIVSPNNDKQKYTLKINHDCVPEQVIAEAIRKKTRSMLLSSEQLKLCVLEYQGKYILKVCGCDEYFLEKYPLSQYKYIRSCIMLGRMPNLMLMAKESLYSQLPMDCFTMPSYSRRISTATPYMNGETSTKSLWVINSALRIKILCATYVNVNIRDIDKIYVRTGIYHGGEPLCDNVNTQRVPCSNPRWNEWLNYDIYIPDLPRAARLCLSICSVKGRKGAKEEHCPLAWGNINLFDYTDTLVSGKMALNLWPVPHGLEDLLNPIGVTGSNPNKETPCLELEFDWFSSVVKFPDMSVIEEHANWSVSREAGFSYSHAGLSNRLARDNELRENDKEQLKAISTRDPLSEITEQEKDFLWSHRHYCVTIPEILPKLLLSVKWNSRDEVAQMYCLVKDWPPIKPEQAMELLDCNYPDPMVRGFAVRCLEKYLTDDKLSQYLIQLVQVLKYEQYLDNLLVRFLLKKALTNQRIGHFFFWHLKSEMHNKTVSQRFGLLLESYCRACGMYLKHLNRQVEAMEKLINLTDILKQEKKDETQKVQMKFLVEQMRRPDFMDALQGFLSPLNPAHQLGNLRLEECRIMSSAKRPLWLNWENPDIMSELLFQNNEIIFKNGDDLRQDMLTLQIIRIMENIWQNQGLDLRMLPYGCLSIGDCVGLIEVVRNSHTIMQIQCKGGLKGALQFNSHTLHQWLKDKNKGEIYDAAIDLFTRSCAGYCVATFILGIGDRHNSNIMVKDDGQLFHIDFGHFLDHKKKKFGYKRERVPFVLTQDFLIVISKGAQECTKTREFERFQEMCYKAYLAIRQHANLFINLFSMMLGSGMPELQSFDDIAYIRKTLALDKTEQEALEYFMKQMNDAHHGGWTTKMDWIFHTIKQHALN
T2 sequence (P27986 whole entry partner, species assumed): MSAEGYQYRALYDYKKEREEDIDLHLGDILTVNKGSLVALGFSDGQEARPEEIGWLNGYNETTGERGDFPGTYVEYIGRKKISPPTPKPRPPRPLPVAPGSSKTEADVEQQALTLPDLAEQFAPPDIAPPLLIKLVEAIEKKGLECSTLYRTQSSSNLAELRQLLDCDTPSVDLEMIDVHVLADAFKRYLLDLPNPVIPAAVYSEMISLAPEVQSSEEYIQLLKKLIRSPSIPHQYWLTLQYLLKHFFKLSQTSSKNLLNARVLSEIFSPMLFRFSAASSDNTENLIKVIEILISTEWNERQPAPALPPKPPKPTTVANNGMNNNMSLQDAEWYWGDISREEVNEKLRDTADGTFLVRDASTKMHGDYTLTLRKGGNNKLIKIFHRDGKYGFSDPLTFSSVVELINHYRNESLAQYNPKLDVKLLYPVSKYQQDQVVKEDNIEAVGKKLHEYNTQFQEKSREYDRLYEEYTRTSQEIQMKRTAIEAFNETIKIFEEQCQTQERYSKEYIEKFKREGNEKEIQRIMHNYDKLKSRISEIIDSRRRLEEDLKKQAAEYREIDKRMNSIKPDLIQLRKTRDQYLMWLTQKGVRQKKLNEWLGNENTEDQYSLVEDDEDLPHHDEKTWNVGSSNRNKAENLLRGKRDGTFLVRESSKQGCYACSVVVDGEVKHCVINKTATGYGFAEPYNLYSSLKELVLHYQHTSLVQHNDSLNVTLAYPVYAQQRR
T1 sequence (Q13547 whole entry, species assumed): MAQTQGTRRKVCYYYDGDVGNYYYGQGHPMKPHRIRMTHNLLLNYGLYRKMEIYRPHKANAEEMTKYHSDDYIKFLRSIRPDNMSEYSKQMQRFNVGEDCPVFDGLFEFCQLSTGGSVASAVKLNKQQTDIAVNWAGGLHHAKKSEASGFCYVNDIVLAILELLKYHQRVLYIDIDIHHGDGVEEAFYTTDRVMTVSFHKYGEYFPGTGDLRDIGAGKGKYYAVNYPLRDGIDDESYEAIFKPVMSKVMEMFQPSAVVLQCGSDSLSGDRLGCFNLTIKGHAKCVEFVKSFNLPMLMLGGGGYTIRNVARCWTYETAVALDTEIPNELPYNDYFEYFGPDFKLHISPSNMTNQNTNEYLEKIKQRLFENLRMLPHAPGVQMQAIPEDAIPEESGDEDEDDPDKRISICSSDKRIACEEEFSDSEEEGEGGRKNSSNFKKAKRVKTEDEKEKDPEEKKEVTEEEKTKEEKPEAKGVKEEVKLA

Compound | IC50 (HDAC1; [4]) [nM] | IC50 (HDAC1; [5]) [nM] | IC50 (PI3Kα) [nM] | IC50 [1, 6] [nM] | IC50 [2, 7] [nM] | IC50 [3, 8] [nM] | IC50 [1, 9] [nM] | IC50 [2, 10] [nM] | IC50 [3, 11] [nM]
CN(Cc1nc2c(N3CCOCC3)nc(-c3cccc(O)c3)nc2n1C)c1ncc(C(=O)NO)cn1 [CLJ-27, 2-(((2-(3-hydroxyphenyl)-9-methyl-6-morpholine-9H-purine-8-yl))methyl(methyl)amino)-N-hydroxyl pyrimidine-5-formamide] | < 1 | < 1 | > 10000 | 0.1 to 10 | 10 to 100 | 10 to 100 | – | – | –
COc1cc(-c2nc(N3CCOCC3)c3nc(CN(C)c4ncc(C(=O)NO)cn4)n(C)c3n2)cc(OC)c1OC [CLJ-35, 2-(((2-(3,4,5-trimetoxyphenyl)-9-methyl-6-morpholine-9H-purine-8-yl))methyl(methyl)amino)-N-hydroxyl pyrimidine-5-formamide] | < 100 | – | > 10000 | 0.1 to 10 | 10 to 100 | 10 to 100 | – | – | –
CN(Cc1nc2c(N3CCOCC3)nc(-c3ccc4c(c3)OCO4)nc2n1C)c1ncc(C(=O)NO)cn1 [CLJ-36, 2-(((2-(benzo[d][1,3]dioxole-5-yl)-9-methyl-6-morpholine-9H-purine-8-yl))methyl(methyl)amino)-N-hydroxyl pyrimidine-5-formamide] | < 1 | < 1 | > 10000 | 0.1 to 10 | 0.1 to 10 | 0.1 to 10 | 0.1 to 10 | 0.1 to 10 | 0.1 to 10
COc1ccc(-c2nc(N3CCOCC3)c3nc(CN(C)c4ncc(C(=O)NO)cn4)n(C(C)C)c3n2)cc1 [CLJ-31] | 100 to 1000 | – | > 10000 | > 1000 | > 1000 | > 1000 | – | – | –
CCn1c(CN(C)c2ncc(C(=O)NO)cn2)nc2c(N3CCOCC3)nc(-c3ccc(OC)nc3)nc21 [CLJ-2, 2-(((9-ethyl-2(6-methoxyl 3-pyridyl)-6-morpholino-9H-purine-8-yl))methyl(methyl)amino)-N-hydroxyl pyrimidine-5-formamide] | < 100 | – | 1000 to 10000 | 100 to 1000 | 100 to 1000 | 100 to 1000 | – | – | –
CN(Cc1nc2c(N3CCOCC3)nc(-c3ccc(C(=O)O)s3)nc2n1C)c1ncc(C(=O)NO)cn1 [CLJ-20, 2-(((2-(5-carboxyl-2-thienyl)-9-methyl-6-morpholine-9H-purine-8-yl))methyl(methyl)amino)-N-hydroxyl pyrimidine-5-formamide] | < 100 | – | > 10000 | 0.1 to 10 | 0.1 to 10 | 10 to 100 | – | – | –
CN(Cc1nc2c(N3CCOCC3)nc(-c3cccnc3)nc2n1C)c1ncc(C(=O)NO)cn1 [CLJ-9, 2-(((2-(3-pyridyl)-9-methyl-6-morpholine-9H-purine-8-yl))methyl(methyl)amino)-N-hydroxyl pyrimidine-5-formamide] | < 1 | < 1 | > 10000 | 0.1 to 10 | 10 to 100 | 10 to 100 | – | – | –
CCn1c(CN(C)c2ncc(C(=O)NO)cn2)nc2c(N3CCOCC3)nc(-c3ccc(OC)cc3)nc21 [CLJ-30, 2-((9-ethyl-2(4-methoxyphenyl)-6-morpholino-9H-purine-8-yl)methyl)(methyl)amino-N-hydroxyl pyrimidine-5-formamide] | < 100 | – | > 10000 | 0.1 to 10 | 10 to 100 | 10 to 100 | – | – | –
CCCCc1ccc(-c2nc(N3CCOCC3)c3nc(CN(C)c4ncc(C(=O)NO)cn4)n(C)c3n2)s1 [CLJ-21, 2-(((2-(5-n-butyl-2-thienyl)-9-methyl-6-morpholine-9H-purine-8-yl))methyl(methyl)amino)-N-hydroxyl pyrimidine-5-formamide] | < 100 | – | > 10000 | 0.1 to 10 | 0.1 to 10 | 0.1 to 10 | 0.1 to 10 | 0.1 to 10 | 0.1 to 10
CN(C)CCn1cc(-c2nc(N3CCOCC3)c3nc(CN(C)c4ncc(C(=O)NO)cn4)n(C)c3n2)cn1 [CLJ-25] | < 100 | – | 1000 to 10000 | 0.1 to 10 | 0.1 to 10 | 0.1 to 10 | 0.1 to 10 | 0.1 to 10 | 0.1 to 10
2-(((2-(2-(3-(1-hydroxyethyl)2-phenyl)-9-methyl-6-morpholine-9H-purine-8-yl))methyl(methyl)amino)-N-hydroxyl pyrimidine-5-formamide [CLJ-39] | < 100 | – | > 10000 | – | – | – | – | – | –

The remaining lines, values ahead:

IC50 (HDAC1; [4]) [nM] | IC50 (HDAC1; [5]) [nM] | IC50 (PI3Kα) [nM] | IC50 [1, 6] [nM] | IC50 [2, 7] [nM] | IC50 [3, 8] [nM] | IC50 [1, 9] [nM] | IC50 [2, 10] [nM] | IC50 [3, 11] [nM] | Compound
< 100 | – | > 10000 | 0.1 to 10 | 0.1 to 10 | 0.1 to 10 | 0.1 to 10 | 0.1 to 10 | 0.1 to 10 | CCNc1ccc(-c2nc(N3CCOCC3)c3nc(CN(C)c4ncc(C(=O)NO)cn4)n(C)c3n2)cc1 [CLJ-48]
< 100 | – | > 10000 | 100 to 1000 | 100 to 1000 | 100 to 1000 | – | – | – | CN(Cc1nc2c(N3CCOCC3)nc(-c3ccc(Cl)c(C(F)(F)F)c3)nc2n1C)c1ncc(C(=O)NO)cn1 [CLJ-54, 2-(((2-(-4-chlorine-3-trifluoromethylphenyl)-9-methyl-6-morpholine-9H-purine-8-yl))methyl(methyl)amino)-N-hydroxyl pyrimidine-5-formamide]
< 1 | < 1 | > 10000 | 0.1 to 10 | 10 to 100 | 0.1 to 10 | – | – | – | CN(Cc1nc2c(N3CCOCC3)nc(-c3ccc(S(C)(=O)=O)cc3)nc2n1C)c1ncc(C(=O)NO)cn1 [CLJ-57, 2-(((2-(4-methylsulphonylphenyl)-9-methyl-6-morpholine-9H-purine-8-yl))methyl(methyl)amino)-N-hydroxyl pyrimidine-5-formamide]
< 100 | – | > 10000 | 0.1 to 10 | 10 to 100 | 0.1 to 10 | – | – | – | Cc1ccc(-c2nc(N3CCOCC3)c3nc(CN(C)c4ncc(C(=O)NO)cn4)n(C)c3n2)cc1 [CLJ-60, 2-(((2-(p-methylbenzene)-9-methyl-6-morpholine-9H-purine-8-yl))methyl(methyl)amino)-N-hydroxyl pyrimidine-5-formamide]
< 100 | – | > 10000 | 0.1 to 10 | 10 to 100 | 10 to 100 | – | – | – | CN(Cc1nc2c(N3CCOCC3)nc(-c3ccc(C(F)(F)F)cc3)nc2n1C)c1ncc(C(=O)NO)cn1 [CLJ-55]
< 100 | – | > 10000 | – | – | – | – | – | – | CCc1ccc(-c2nc(N3CCOCC3)c3nc(CN(C)c4ncc(C(=O)NO)cn4)n(C)c3n2)cc1 [CLJ-61, 2-(((2-(4-ethylphenyl)-9-methyl-6-morpholine-9H-purine-8-yl))methyl(methyl)amino)-N-hydroxyl pyrimidine-5-formamide]
– | – | – | 100 to 1000 | > 1000 | > 1000 | – | – | – | Nc1cc(F)ccc1NC(=O)c1ccc(CNC(=O)/C=C/c2cccnc2)cc1 [Chidamide, chidamide, reference compound]
